Format in all cases: physicochemical
Data set [1] is described as follows: Xenon long-life fadeometer test of photochromic poly(methyl methacrylate) cast film (initial coloration density, T1/2, λmax), Example 9.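 As to Initial color density: 0.5 part by weight compound dispersed with PMMA in 100 parts benzene.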 The settings on record: poly(methyl methacrylate) cast film 0.1 mm; for Initial color density: initial coloration density (absorbance); for Initial color density / T1/2 (fatigue life): xenon fadeometer; for λmax: maximum absorption wavelength; for T1/2 (fatigue life): time for color density to decrease to half of initial value. The source says: The thickness of the cast film was adjusted to 0.1 mm.
(§1) T1/2 is defined as the time required for the color density to decrease to half of its initial value when the film is exposed to the fadeometer.

Data set [2] can be described thus: Fading speed of poly(methyl methacrylate) cast film after mercury lamp irradiation, Example 9. The following applies: mercury lamp 60 seconds at 20°±1° C., time to half absorbance after irradiation stopped. As to the method:
The fading speeds of the cast films prepared as above were measured by the following procedure.
The cast film was exposed to a mercury lamp (SHL-100 made by Toshiba Co., Ltd.) at 20°±1° C. for 60 seconds from a distance of 10 cm. Then, the irradiation was stopped, and the fading speed was determined from changes in the absorbance of the cast film measured by a spectrophotometer (220A made by Hitachi Limited). The fading speed is expressed by the time which is required to the absorbance of the cast film to a value half of (the absorbance of the cast film at a maximum absorption wavelength immediately after 60 second irradiation)--(the absorbance of the non-irradiated cast film at the maximum wavelength) after light irradiation for 60 seconds.

A short description of data set [3]: Durability test of poly(allyl diglycol carbonate) lens impregnated with compound in silicone oil, Example 10. The settings on record: for Initial color density / λmax: impregnated from silicone oil; for T1/2: impregnated from silicone oil at 200° C. for 1 hour, xenon fadeometer. As to the method: as §1
The solution was impregnated in the surface of a lens composed of poly(allyl diglycol carbonate) at 200° C. for 1 hour. The concentration of the solution was adjusted to 1.0×10^-4 mole/g.

Data set [4] is described as follows: Fatigue life of film of fulgimide compound obtained in Example 1 with ultraviolet stabilizer, Example 11. The settings on record: fulgimide compound obtained in Example 1 (0.2 part) with 0.2 part ultraviolet stabilizer in poly(methyl methacrylate) film; xenon fadeometer.
Excerpt: as §1
(§2) One hundred parts of benzene, 10 parts of poly(methyl methacrylate), 0.2 part of the fulgimide compound obtained in Example 1 and 0.2 part of each of the compounds shown in Table 5 as an ultraviolet stabilizer were mixed to form a solution. The solution was cast on a slide glass (11.2×3.7cm) to form a cast film having a thickness of 0.1 mm.
(§3) The fatigue life of photochromic film was measured as in Example 9 by a xenon long-life fadeometer (FAL-25AX-HC made by Suga Testing Instrument Co., Ltd.).

A short description of data set [5]: Fatigue life of film of fulgimide compound obtained in Example 2 with ultraviolet stabilizer, Example 12. The settings on record: fulgimide compound obtained in Example 2 (0.2 part) with 0.2 part ultraviolet stabilizer in poly(methyl methacrylate) film; xenon fadeometer. The procedure:
as §2, §3
Example 11 was repeated except that the fulgimide compound obtained in Example 2 was used instead of fulgimide compound used in Example 11.

With `CCn1c2c(c3ccccc31)C(C)=C1C(=O)OC(=O)C1C21C2CCC(C2)C1(C)C` (centres unmarked) [(94)], in data set [1], the Initial color density turned out to be 0.49, the λmax came out at 546 nm and the “T1/2 (fatigue life)” value came out at 12 h.

For `CC1=C2C(=O)N(c3ccccc3)C(=O)C2C2(CC3CCC2C3)c2sc(Br)cc21` (centres unmarked) [(97)], in data set [1], the Initial color density amounted to 0.31, the λmax came out at 506 nm and the “T1/2 (fatigue life)” value amounted to 8 h.

Consider `COC(=O)CN1C(=O)C2=C(C)c3ccsc3C3(C4CC5CC(C4)CC3C5)C2C1=O` (centres unmarked) [(1)], for which, in data set [1], the Initial color density stood at 0.62, the λmax is listed as 535 nm and the “T1/2 (fatigue life)” value stood at 38 h. The compound further gave a Fading speed in data set [2] of 39 s. In addition, in data set [3], the Initial color density was 0.5, the λmax was 540 nm and the T1/2 is 40 h.

For the compound `CCCCN(CCCC)C(=S)[S-].CCCCN(CCCC)C(=S)[S-].[Ni+2]` [Rylex NBC], the T1/2 in data set [4] turned out to be 158 h; in data set [5], 190 h.

`COC12CC3CC(C1)C1(c4oc5ccccc5c4C(C)=C4C(=O)N(CC(=O)OC(C)(C)CCC#N)C(=O)C41)C(C3)C2` (centres unmarked) [(14)]: in data set [1], the Initial color density was found to be 0.82, the λmax amounted to 490 nm and the “T1/2 (fatigue life)” value turned out to be 42 h. In data set [3], the Initial color density was 0.63, the λmax was 500 nm and the T1/2 is 42 h.

Consider `CCOP(=O)([O-])Cc1cc(C(C)(C)C)c(O)c(C(C)(C)C)c1.CCOP(=O)([O-])Cc1cc(C(C)(C)C)c(O)c(C(C)(C)C)c1.[Ni+2]` [Irgastab 2002], for which the T1/2 in data set [4] worked out at 147 h; in data set [5], 176 h.

As to `CC1=C2C(=O)N(c3ccc(C)cc3)C(=O)C2C2(CC3CCC2C3)c2sc3ccccc3c21` (centres unmarked) [(98)], in data set [1], the λmax came out at 513 nm and the “T1/2 (fatigue life)” value is 11 h.

Consider `CC1=C2C(=O)N(CC(=O)OCC(C)C)C(=O)C2C2(CC3CCC2C3)c2sc(Br)cc21` (centres unmarked) [(19)], for which, in data set [1], the Initial color density amounted to 0.47, the λmax is reported as 520 nm and the “T1/2 (fatigue life)” value is 43 h.

As to `CNC(=O)CN1C(=O)C2=C(C)c3cc([N+](=O)[O-])sc3C3(C4CC5CC(C4)CC3C5)C2C1=O` (centres unmarked) [(11)], in data set [1], the Initial color density is 0.61, the λmax was 525 nm and the “T1/2 (fatigue life)” value was found to be 39 h.

`CC1=C2C(=O)N(C[N+](=O)[O-])C(=O)C2C2(c3sc(C)cc31)C1CC3CC(C1)CC2C3` (centres unmarked) [(8)]: in data set [1], the Initial color density is 0.72, the λmax amounted to 556 nm and the “T1/2 (fatigue life)” value was 30 h. Besides, in data set [3], the Initial color density was 0.56, the λmax is given as 562 nm and the T1/2 is 32 h.

Turning to `CCN1C(=O)C2=C(C)c3cc(OC)c(OC)c(OC)c3C3(CC4CCC3C4)C2C1=O` (centres unmarked) [(99)], in data set [1], the Initial color density stood at 0.24, the λmax came to 510 nm and the “T1/2 (fatigue life)” value turned out to be 8 h.

With `CC(=O)CN1C(=O)C2=C(c3ccccc3)c3cc(-c4ccccc4)sc3C3(C4CC5CC(C4)CC3C5)C2C1=O` (centres unmarked) [(10)], in data set [1], the Initial color density worked out at 0.58, the λmax is reported as 601 nm and the “T1/2 (fatigue life)” value worked out at 40 h. Moreover, in data set [3], the Initial color density is 0.47, the λmax was 610 nm and the T1/2 was 43 h.

Turning to `CCCCC(Cc1cc(C(C)(C)C)c(O)c(C(C)(C)C)c1)(C(=O)OC1CC(C)(C)N(C)C(C)(C)C1)C(=O)OC1CC(C)(C)N(C)C(C)(C)C1` [Tinuvin 144], the T1/2 in data set [4] was determined as 152 h; in data set [5] it was 182 h.

`COc1ccc2c3c(sc2c1)C1(C2CC4CC(C2)CC1C4)C1C(=O)N(CCl)C(=O)C1=C3C` (centres unmarked) [(9)]: in data set [1], the Initial color density is 0.59, the λmax is reported as 542 nm and the “T1/2 (fatigue life)” value came to 30 h.

As for `CCC(C(=O)OCCc1ccc2ccccc2c1)N1C(=O)C2=C(C)c3ccsc3C3(C4CC5CC(C4)CC3C5)C2C1=O` (centres unmarked) [(5)], in data set [1], the Initial color density was 0.51, the λmax worked out at 520 nm and the “T1/2 (fatigue life)” value turned out to be 24 h. Further, in data set [2], the Fading speed amounted to 58 s. Besides, in data set [3], the Initial color density is 0.4, the λmax is 520 nm and the T1/2 is 31 h.

As for `CC1=C2C(=O)OC(=O)C2C2(CC3CCC2C3)c2sc(Br)cc21` (centres unmarked) [(7)], in data set [1], the Initial color density amounted to 0.38, the λmax is recorded as 520 nm and the “T1/2 (fatigue life)” value was found to be 15 h. Moreover, the Fading speed in data set [2] is 21 s.

As for `CCCCC12CC3CC(C1)C1(c4c(n(C)c5ccccc45)C(C)=C4C(=O)N(CC(=O)OCCC#N)C(=O)C41)C(Cl)(C3)C2` (centres unmarked) [(29)], in data set [1], the Initial color density was found to be 0.71, the λmax worked out at 576 nm and the “T1/2 (fatigue life)” value worked out at 44 h. Besides, in data set [3], the Initial color density is 0.56, the λmax is given as 583 nm and the T1/2 was 45 h.

Take `CC1=C2C(=O)N(CC#N)C(=O)C2C2(c3occc31)C1CC3CC(C1)CC2C3` (centres unmarked) [(28)]: in data set [1], the Initial color density came out at 0.9, the λmax was determined as 535 nm and the “T1/2 (fatigue life)” value was 48 h. For the same compound, in data set [3], the Initial color density was 0.72, the λmax is on record as 540 nm and the T1/2 is 49 h.

`CCCCC1=C2C(=O)N(CC(C)(C)CCOC(=O)CBr)C(=O)C2C2(CC3CCC2C3(C)C)c2sc3c(c21)CCCC3` (centres unmarked) [(21)]: in data set [1], the Initial color density was determined as 0.52, the λmax stood at 576 nm and the “T1/2 (fatigue life)” value was 36 h.

With `CCC1=C2C(=O)N(CC(=O)CCC(=O)CCl)C(=O)C2C2(c3c1sc1ccccc31)C1(F)C(F)(F)C3(F)C(F)(F)C(F)(C1(F)F)C(F)(F)C2(F)C3(F)F` (centres unmarked) [(18)], in data set [1], the Initial color density worked out at 0.52, the λmax amounted to 519 nm and the “T1/2 (fatigue life)” value stood at 41 h.

`CCN1C(=O)C2=C(C)c3ccsc3C3(C4CC5CC(C4)CC3C5)C2C1=O` (centres unmarked) [(X), reference compound]: in data set [1], the Initial color density was 0.7, the λmax stood at 530 nm and the “T1/2 (fatigue life)” value was determined as 3 h.

Take `COCCOCN1C(=O)C2=C(C)c3c(oc4ccccc34)C3(C4CC5CC(F)(C4)CC3(F)C5)C2C1=O` (centres unmarked) [(16)]: in data set [1], the Initial color density was found to be 0.84, the λmax was found to be 492 nm and the “T1/2 (fatigue life)” value was determined as 31 h.

Turning to `CC1=C2C(=O)OC(=O)C2C2(CC3CCC2(C)C3(C)C)c2sc(C)cc21` (centres unmarked) [(95)], in data set [1], the Initial color density worked out at 0.53, the λmax stood at 540 nm and the “T1/2 (fatigue life)” value stood at 11 h.

Values taken from US4960678A, “Photochromic compounds” (Tokuyama Soda Kabushiki Kaisha, priority 1987, dated 1990).
